Numbers after ± are expanded uncertainties.
Conditions: Liquid, Frequency=8 MHz, Pulse-echo method

C1CCCC1 [cyclopentane]
speed of sound (258.15 K, 100 kPa): 1419.1 ± 3.1 m/s | speed of sound (258.15 K, 5072 kPa): 1446.1 ± 3.2 m/s | speed of sound (258.15 K, 10244 kPa): 1473 ± 3.2 m/s | speed of sound (258.15 K, 15262 kPa): 1498.1 ± 3.3 m/s | speed of sound (258.15 K, 20158 kPa): 1521.7 ± 3.3 m/s | speed of sound (258.15 K, 25083 kPa): 1544.5 ± 3.4 m/s | speed of sound (258.15 K, 30141 kPa): 1567.1 ± 3.4 m/s | speed of sound (273.15 K, 100 kPa): 1336.6 ± 3 m/s | speed of sound (273.15 K, 5169 kPa): 1366.7 ± 3 m/s | speed of sound (273.15 K, 10059 kPa): 1394.3 ± 3.1 m/s | speed of sound (273.15 K, 15219 kPa): 1422 ± 3.2 m/s | speed of sound (273.15 K, 20251 kPa): 1447.9 ± 3.2 m/s | speed of sound (273.15 K, 25184 kPa): 1472.3 ± 3.2 m/s | speed of sound (273.15 K, 30227 kPa): 1496.3 ± 3.3 m/s | speed of sound (293.15 K, 105 kPa): 1230.1 ± 2.8 m/s | speed of sound (293.15 K, 5059 kPa): 1263 ± 2.9 m/s | speed of sound (293.15 K, 10088 kPa): 1294.4 ± 2.9 m/s | speed of sound (293.15 K, 15198 kPa): 1324.6 ± 3 m/s | speed of sound (293.15 K, 20121 kPa): 1352.3 ± 3 m/s | speed of sound (293.15 K, 25192 kPa): 1379.6 ± 3.1 m/s | speed of sound (293.15 K, 30134 kPa): 1405 ± 3.1 m/s | speed of sound (313.15 K, 107 kPa): 1126.8 ± 2.6 m/s | speed of sound (313.15 K, 5113 kPa): 1164 ± 2.7 m/s | speed of sound (313.15 K, 10058 kPa): 1198.3 ± 2.7 m/s | speed of sound (313.15 K, 15132 kPa): 1231.3 ± 2.8 m/s | speed of sound (313.15 K, 20097 kPa): 1261.8 ± 2.9 m/s | speed of sound (313.15 K, 25098 kPa): 1291 ± 2.9 m/s | speed of sound (313.15 K, 30162 kPa): 1319.2 ± 3 m/s | speed of sound (333.15 K, 149 kPa): 1026.6 ± 2.4 m/s | speed of sound (333.15 K, 5035 kPa): 1067.6 ± 2.5 m/s | speed of sound (333.15 K, 10139 kPa): 1107 ± 2.6 m/s | speed of sound (333.15 K, 15108 kPa): 1142.5 ± 2.6 m/s | speed of sound (333.15 K, 20130 kPa): 1176.2 ± 2.7 m/s | speed of sound (333.15 K, 25152 kPa): 1208 ± 2.8 m/s | speed of sound (333.15 K, 30170 kPa): 1238 ± 2.8 m/s | speed of sound (353.15 K, 261 kPa): 929.4 ± 2.3 m/s | speed of sound (353.15 K, 5019 kPa): 974.63 ± 2.3 m/s | speed of sound (353.15 K, 10069 kPa): 1018.2 ± 2.4 m/s | speed of sound (353.15 K, 15107 kPa): 1058.1 ± 2.5 m/s | speed of sound (353.15 K, 20063 kPa): 1094.4 ± 2.6 m/s | speed of sound (353.15 K, 25009 kPa): 1128.3 ± 2.6 m/s | speed of sound (353.15 K, 30157 kPa): 1161.5 ± 2.7 m/s
